Measured values taken from patent publication US8871934B2, “Fluorene compound and pharmaceutical use thereof” (Japan Tobacco Inc., priority 2008, dated 2014).
Where two headings read alike, the source gives them in different places.

Biological target: human PDHK2 (hPDHK2) (Homo sapiens (Human), UniProt Q15119)
Experiment: Inhibitory action of PDHK activity in vitro (kinase reaction, residual PDH activity measured)
Format: biochemical
[1] = PDHK inhibitory activity, class symbol of IC50
[2] = read-out: PDHK inhibitory activity IC50
[3] = class symbol of IC50, read-out: PDHK inhibitory activity

Row | Compound | IC50 [1] [nM] | IC50 [2] [nM] | IC50 [3] [nM]
1 | CC(=O)NCCOc1ccc2c(c1)C(O)(C(F)(F)F)c1ccccc1-2 (stereo not shown) [compound 325] | > 1000 | 1080 | –
2 | CC(=O)N(C)CCOc1ccc2c(c1)C(O)(C(F)(F)F)c1ccccc1-2 (stereo not shown) [compound 326] | 100 to 1000 | 303 | –
3 | CN(CCCO)C(=O)c1ccc2c(c1)C(O)(C(F)(F)F)c1ccccc1-2 (stereo not shown) [compound 327] | > 1000 | 2940 | –
4 | O=C(c1cc(Cl)c2c(c1)C(O)(C(F)(F)F)c1ccccc1-2)N1CC(OCCO)C1 (stereo not shown) [compound 328] | < 100 | 78 | –
5 | CN(C)C(=O)C1CN(C(=O)c2cc(Cl)c3c(c2)C(O)(C(F)(F)F)c2ccccc2-3)C1 (stereo not shown) [compound 329] | < 100 | 66 | –
6 | O=C(c1cc(Cl)c2c(c1)C(O)(C(F)(F)F)c1ccccc1-2)N1CC(CO)C1 (stereo not shown) [compound 330] | 100 to 1000 | 125 | –
7 | NCCCOc1ccc2c(c1)C(O)(C(F)(F)F)c1ccccc1-2 (stereo not shown) [compound 331] | > 1000 | 1420 | –
8 | CNCCCOc1ccc2c(c1)C(O)(C(F)(F)F)c1ccccc1-2 (stereo not shown) [compound 332] | 100 to 1000 | 912 | –
9 | CN(C)CCCOc1ccc2c(c1)C(O)(C(F)(F)F)c1ccccc1-2 (stereo not shown) [compound 333] | 100 to 1000 | 924 | –
10 | CC(=O)N(C)CCCOc1ccc2c(c1)C(O)(C(F)(F)F)c1ccccc1-2 (stereo not shown) [compound 334] | 100 to 1000 | 674 | –
11 | OC1(C(F)(F)F)c2ccccc2-c2c(-c3cncnc3)cc(Cl)cc21 (stereo not shown) [compound 335] | < 100 | 80 | –
12 | NCc1cccc2c1-c1ccccc1C2(O)C(F)(F)F (stereo not shown) [compound 336] | > 1000 | > 10000 | –
13 | O=C(c1ccc2c(c1)C(O)(C(F)(F)F)c1ccccc1-2)N1CC(C(=O)N2CCC(O)C2)C1 (stereo not shown) [compound 337] | 100 to 1000 | 499 | –
14 | Cc1cc(C(=O)NCCCCO)cc2c1-c1ccccc1C2(O)C(F)(F)F (stereo not shown) [compound 338] | – | > 1000 | > 1000
15 | O=C(c1cc(Cl)c2c(c1)C(O)(C(F)(F)F)c1ccccc1-2)N1CC(O)C1 (stereo not shown) [compound 339] | 100 to 1000 | 177 | –
16 | CC(=O)NCCCOc1ccc2c(c1)C(O)(C(F)(F)F)c1ccccc1-2 (stereo not shown) [compound 340] | > 1000 | 1590 | –
17 | CC(C)(C)OC(=O)c1ccc(-c2cc(-c3cccnc3)c3c(c2)C(O)(C(F)(F)F)c2ccccc2-3)cc1 (stereo not shown) [compound 341] | < 100 | 79 | –
18 | O=C(O)c1ccc(-c2cc(-c3cccnc3)c3c(c2)C(O)(C(F)(F)F)c2ccccc2-3)cc1 (stereo not shown) [compound 342] | < 100 | 47 | –
19 | COC(=O)c1cc(-c2cnn(C)c2)c2c(c1)C(O)(C(F)(F)F)c1ccccc1-2 (stereo not shown) [compound 343] | < 100 | 53 | –
20 | Cn1cc(-c2cc(C(=O)O)cc3c2-c2ccccc2C3(O)C(F)(F)F)cn1 (stereo not shown) [compound 344] | – | > 1000 | > 1000
21 | Cn1cc(-c2cc(C(=O)NCCCCO)cc3c2-c2ccccc2C3(O)C(F)(F)F)cn1 (stereo not shown) [compound 345] | 100 to 1000 | 121 | –
22 | CN(CCO)C(=O)c1cc(-c2cnn(C)c2)c2c(c1)C(O)(C(F)(F)F)c1ccccc1-2 (stereo not shown) [compound 346] | 100 to 1000 | 200 | –
23 | CCn1cc(-c2cccc3c2-c2ccccc2C3(O)C(F)(F)F)cn1 (stereo not shown) [compound 347] | < 100 | 88 | –

Row | Compound | IC50 [1] [nM] | IC50 [2] [nM] | IC50 [3] [nM]
24 | CN(CCOc1ccc2c(c1)C(O)(C(F)(F)F)c1ccccc1-2)C(=O)CO (stereo not shown) [compound 348] | 100 to 1000 | 634 | –
25 | NC(=O)COC1CN(C(=O)c2cc(Cl)c3c(c2)C(O)(C(F)(F)F)c2ccccc2-3)C1 (stereo not shown) [compound 349] | 100 to 1000 | 126 | –
26 | Cc1cc(C(=O)N2CC(O)C2)cc2c1-c1ccccc1C2(O)C(F)(F)F (stereo not shown) [compound 350] | 100 to 1000 | 152 | –
27 | Cc1cc(C(=O)N2CC(CO)C2)cc2c1-c1ccccc1C2(O)C(F)(F)F (stereo not shown) [compound 351] | 100 to 1000 | 168 | –
28 | Cc1cc(C(=O)N2CC(OCC(N)=O)C2)cc2c1-c1ccccc1C2(O)C(F)(F)F (stereo not shown) [compound 352] | 100 to 1000 | 109 | –
29 | COC(=O)Cc1ccc2c(c1)C(O)(C(F)(F)F)c1ccccc1-2 (stereo not shown) [compound 353] | > 1000 | 7400 | –
30 | CN(C)C(=O)c1cc(-c2cnn(C)c2)c2c(c1)C(O)(C(F)(F)F)c1ccccc1-2 (stereo not shown) [compound 354] | < 100 | 71 | –
31 | Cn1cc(-c2cc(C(=O)N3CCC3)cc3c2-c2ccccc2C3(O)C(F)(F)F)cn1 (stereo not shown) [compound 355] | < 100 | 40 | –
32 | Cn1cc(-c2cc(C(=O)N3CCCC3)cc3c2-c2ccccc2C3(O)C(F)(F)F)cn1 (stereo not shown) [compound 356] | < 100 | 53 | –
33 | COC(=O)COc1ccc2c(c1)C(O)(C(F)(F)F)c1ccccc1-2 (stereo not shown) [compound 357] | > 1000 | 1940 | –
34 | Cn1cc(-c2cc(OCC(=O)O)cc3c2-c2ccccc2C3(O)C(F)(F)F)cn1 (stereo not shown) [compound 358] | < 100 | 34 | –
35 | O=C1CCCN1CCOc1ccc2c(c1)C(O)(C(F)(F)F)c1ccccc1-2 (stereo not shown) [compound 359] | 100 to 1000 | 187 | –
36 | O=C(COc1ccc2c(c1)C(O)(C(F)(F)F)c1ccccc1-2)N1CCCC1 (stereo not shown) [compound 360] | 100 to 1000 | 548 | –
37 | O=C(COc1ccc2c(c1)C(O)(C(F)(F)F)c1ccccc1-2)N1CCCCC1 (stereo not shown) [compound 361] | 100 to 1000 | 436 | –
38 | O=C(COc1ccc2c(c1)C(O)(C(F)(F)F)c1ccccc1-2)N1CCOCC1 (stereo not shown) [compound 362] | > 1000 | 1080 | –
39 | NC(=O)COc1cc(-c2cncnc2)c2c(c1)C(O)(C(F)(F)F)c1ccccc1-2 (stereo not shown) [compound 363] | < 100 | 47 | –
40 | COC(=O)c1cc(-c2cncnc2)c2c(c1)C(O)(C(F)(F)F)c1ccccc1-2 (stereo not shown) [compound 364] | 100 to 1000 | 178 | –
41 | O=C(COc1ccc2c(c1)C(O)(C(F)(F)F)c1ccccc1-2)NCCO (stereo not shown) [compound 365] | > 1000 | 1330 | –
42 | CN(CCO)C(=O)COc1ccc2c(c1)C(O)(C(F)(F)F)c1ccccc1-2 (stereo not shown) [compound 366] | > 1000 | 2170 | –
43 | O=C(O)c1cc(-c2cncnc2)c2c(c1)C(O)(C(F)(F)F)c1ccccc1-2 (stereo not shown) [compound 367] | – | > 1000 | > 1000
44 | CN(C)C(=O)c1cc(-c2cncnc2)c2c(c1)C(O)(C(F)(F)F)c1ccccc1-2 (stereo not shown) [compound 368] | 100 to 1000 | 180 | –
45 | O=C(c1cc(-c2cncnc2)c2c(c1)C(O)(C(F)(F)F)c1ccccc1-2)N1CCC1 (stereo not shown) [compound 369] | < 100 | 81 | –
46 | O=C(c1cc(-c2cncnc2)c2c(c1)C(O)(C(F)(F)F)c1ccccc1-2)N1CCCC1 (stereo not shown) [compound 370] | 100 to 1000 | 114 | –

Row | Compound | IC50 [1] [nM] | IC50 [2] [nM] | IC50 [3] [nM]
47 | O=C(NCCCCO)c1cc(-c2cncnc2)c2c(c1)C(O)(C(F)(F)F)c1ccccc1-2 (stereo not shown) [compound 371] | 100 to 1000 | 617 | –
48 | CN(CCO)C(=O)c1cc(-c2cncnc2)c2c(c1)C(O)(C(F)(F)F)c1ccccc1-2 (stereo not shown) [compound 372] | 100 to 1000 | 564 | –
49 | Cn1cc(-c2cc(C(=O)N3CC(O)C3)cc3c2-c2ccccc2C3(O)C(F)(F)F)cn1 (stereo not shown) [compound 373] | < 100 | 49 | –
50 | Cn1cc(-c2cc(C(=O)N3CC(CO)C3)cc3c2-c2ccccc2C3(O)C(F)(F)F)cn1 (stereo not shown) [compound 374] | < 100 | 49 | –
51 | Cn1cc(-c2cc(C(=O)N3CC(OCCO)C3)cc3c2-c2ccccc2C3(O)C(F)(F)F)cn1 (stereo not shown) [compound 375] | < 100 | 50 | –
52 | Cn1cc(-c2cc(C(=O)N3CCC(O)C3)cc3c2-c2ccccc2C3(O)C(F)(F)F)cn1 (stereo not shown) [compound 376] | < 100 | 85 | –
53 | Cn1cc(-c2ccc3c(c2)C(O)(C(F)(F)F)c2ccccc2-3)cn1 (stereo not shown) [compound 377] | 100 to 1000 | 189 | –
54 | COc1cnc2c(c1)C(O)(C(F)(F)F)c1ccccc1-2 (stereo not shown) [compound 378] | 100 to 1000 | 703 | –
55 | CC(=O)N(CCO)CCOc1ccc2c(c1)C(O)(C(F)(F)F)c1ccccc1-2 (stereo not shown) [compound 379] | 100 to 1000 | 351 | –
56 | CC(=O)N(C)CC(C)Oc1ccc2c(c1)C(O)(C(F)(F)F)c1ccccc1-2 (stereo not shown) [compound 380] | > 1000 | 1490 | –
57 | CC(=O)N(C)C(C)COc1ccc2c(c1)C(O)(C(F)(F)F)c1ccccc1-2 (stereo not shown) [compound 381] | 100 to 1000 | 495 | –
58 | O=C(COc1ccc2c(c1)C(O)(C(F)(F)F)c1ccccc1-2)N1CCC[C@@H]1CO (stereo partly shown) [compound 382] | 100 to 1000 | 863 | –
59 | O=C(COc1ccc2c(c1)C(O)(C(F)(F)F)c1ccccc1-2)N1CCC[C@H]1CO (stereo partly shown) [compound 383] | > 1000 | 1220 | –
60 | O=C(O)CCCCOc1cc(Cl)c2c(c1)C(O)(C(F)(F)F)c1ccccc1-2 (stereo not shown) [compound 384] | 100 to 1000 | 219 | –
61 | NC(=O)COc1cc(Cl)c2c(c1)C(O)(C(F)(F)F)c1ccccc1-2 (stereo not shown) [compound 385] | 100 to 1000 | 234 | –
62 | CC(C)Cn1cc(-c2cccc3c2-c2ccccc2C3(O)C(F)(F)F)cn1 (stereo not shown) [compound 386] | < 100 | 89 | –
63 | OCCCCCOc1cc(Cl)c2c(c1)C(O)(C(F)(F)F)c1ccccc1-2 (stereo not shown) [compound 387] | < 100 | 63 | –
64 | CC(=O)N(C)CCOc1cc(Cl)c2c(c1)C(O)(C(F)(F)F)c1ccccc1-2 (stereo not shown) [compound 388] | < 100 | 63 | –
65 | O[C@H]1CCN(CCOc2ccc3c(c2)C(O)(C(F)(F)F)c2ccccc2-3)C1 (stereo partly shown) [compound 389] | 100 to 1000 | 822 | –
66 | O[C@@H]1CCN(CCOc2ccc3c(c2)C(O)(C(F)(F)F)c2ccccc2-3)C1 (stereo partly shown) [compound 390] | 100 to 1000 | 954 | –
67 | O=C(COc1ccc2c(c1)C(O)(C(F)(F)F)c1ccccc1-2)N1CCC1 (stereo not shown) [compound 391] | 100 to 1000 | 485 | –
68 | Cn1cc(-c2cc(C(=O)N3CCC[C@@H]3CO)cc3c2-c2ccccc2C3(O)C(F)(F)F)cn1 (stereo partly shown) [compound 392] | 100 to 1000 | 200 | –
